Patent US20200360364A1, “METHODS AND COMPOSITIONS FOR TREATING INFLAMMATORY OR AUTOIMMUNE DISEASES OR CONDITIONS USING CHRNA6 ACTIVATORS” (Flagship Pioneering Innovations V, Inc., priority 2018, published 2020)
Where two headings read alike, the source gives them in different places.

Test system: iTreg-mediated immunosuppression of CD8+ T-cell activation
Type: cell-based, human
Conditions: for Fold Change % IFNγ+ CD8+ Relative to No Compound Condition: 2 nM final concentration

CN1CCCC1c1cccnc1 (stereo not shown) [nicotine]
Fold Change % IFNγ+ CD8+ Relative to No Compound Condition (donor BX23981, CD4+ T-cell:CD8+ T-cell ratio 1:2): 1.20 ± 0.038 | Fold Change % IFNγ+ CD8+ Relative to No Compound Condition (donor BX23981, CD4+ T-cell:CD8+ T-cell ratio 2:1): 0.88 ± 0.035 | Fold Change % IFNγ+ CD8+ Relative to No Compound Condition (donor BX24250, CD4+ T-cell:CD8+ T-cell ratio 1:2): 0.84 ± 0.10 | Fold Change % IFNγ+ CD8+ Relative to No Compound Condition (donor BX24250, CD4+ T-cell:CD8+ T-cell ratio 2:1): 1.07 ± 0.046 | Fold Change % IFNγ+ CD8+ Relative to No Compound Condition (donor BX26425, CD4+ T-cell:CD8+ T-cell ratio 1:1): 0.31 ± 0.089 | Fold Change % IFNγ+ CD8+ Relative to No Compound Condition (donor BX26425, CD4+ T-cell:CD8+ T-cell ratio 1:2): 0.42 ± 0.044 | Fold Change % IFNγ+ CD8+ Relative to No Compound Condition (donor BX26425, CD4+ T-cell:CD8+ T-cell ratio 2:1): 0.18 ± 0.11 | Fold Change % IFNγ+ CD8+ Relative to No Compound Condition (donor BX26825, CD4+ T-cell:CD8+ T-cell ratio 1:1): 0.70 ± 0.10 | Fold Change % IFNγ+ CD8+ Relative to No Compound Condition (donor BX26825, CD4+ T-cell:CD8+ T-cell ratio 1:2): 0.91 ± 0.14 | Fold Change % IFNγ+ CD8+ Relative to No Compound Condition (donor BX27275, CD4+ T-cell:CD8+ T-cell ratio 1:1): 1.16 ± 0.12 | Fold Change % IFNγ+ CD8+ Relative to No Compound Condition (donor BX27275, CD4+ T-cell:CD8+ T-cell ratio 2:1): 1.38 ± 0.41 | Fold Change % IFNγ+ CD8+ Relative to No Compound Condition (donor BX27275, CD4+ T-cell:CD8+ T-cell ratio 2:1 (first line)): 0.9 ± 0.12 | IFNγ+CD8+ T-cells in co-culture (final concentration of 2 nM, added at beginning of iTreg/CD8+ co-culture, read three days after co-culture): trend of decreasing IFNγ+CD8+ T-cells
